Test results taken from patent publication US7456274B2, “Inhibition of metallo-β-lactamase” (priority 2003, dated 2008).
Entries after “also recorded” stand apart in the source; their conditions may differ. Like-named read-outs stand apart in the source and are kept apart here.

Legend:
class B β-lactamases = settings: cited from earlier work
[1] = biological target: metallo-β-lactamase from B. fragilis (Bacteroides fragilis, UniProt P25910); settings: NMR characterization; Scrofani et al. (1999); cited from earlier work
metallo-β-lactamase from B. fragilis, sequence (P25910 19-249): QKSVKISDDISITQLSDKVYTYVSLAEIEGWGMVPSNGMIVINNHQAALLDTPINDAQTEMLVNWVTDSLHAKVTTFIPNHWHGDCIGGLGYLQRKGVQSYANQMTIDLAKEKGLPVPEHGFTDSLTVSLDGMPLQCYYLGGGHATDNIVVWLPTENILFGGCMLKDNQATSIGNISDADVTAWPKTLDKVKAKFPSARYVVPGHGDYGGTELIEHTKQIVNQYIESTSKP

[2] = biological target: metallo-β-lactamase from Stenotrophomonas maltophilia (Stenotrophomonas maltophilia, UniProt P52700); settings: Yang and Crowder (1999); cited from earlier work
metallo-β-lactamase from Stenotrophomonas maltophilia, sequence (P52700 34-290): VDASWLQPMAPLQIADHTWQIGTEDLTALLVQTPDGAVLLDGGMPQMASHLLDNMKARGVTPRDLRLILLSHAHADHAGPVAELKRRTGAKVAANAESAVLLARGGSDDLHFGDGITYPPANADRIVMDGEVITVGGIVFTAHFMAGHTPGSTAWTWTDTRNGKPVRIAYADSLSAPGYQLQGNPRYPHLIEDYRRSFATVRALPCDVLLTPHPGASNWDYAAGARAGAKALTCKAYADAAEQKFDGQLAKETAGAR

[3] = biological target: metallo-β-lactamases (Bacillus cereus enzyme) (Bacillus cereus, UniProt P04190); settings: Mollard et al. (2001); cited from earlier work
metallo-β-lactamases (Bacillus cereus enzyme), sequence (P04190 31-257): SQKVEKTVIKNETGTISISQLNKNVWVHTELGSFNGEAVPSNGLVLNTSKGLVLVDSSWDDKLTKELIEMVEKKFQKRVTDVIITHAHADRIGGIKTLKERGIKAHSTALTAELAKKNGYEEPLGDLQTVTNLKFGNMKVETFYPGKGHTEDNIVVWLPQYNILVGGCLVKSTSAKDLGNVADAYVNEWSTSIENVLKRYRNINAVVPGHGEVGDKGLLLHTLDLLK

[4] = biological target: B. cereus 5/B/6 metallo-β-lactamase (Bacillus cereus, UniProt P14488); format: biochemical; settings: for inhibition pattern from steady-state kinetic study: Lineweaver-Burk plot; for IC50: enzyme preincubated 15 min at 30° C. in 50 mM MOPS, 4 mM cephalosporin C; for IC50 / time dependence of the reversible inhibition: pH=7.0; for time dependence of the reversible inhibition: 50 mM MOPS, cephalosporin C
B. cereus 5/B/6 metallo-β-lactamase, sequence (P14488 30-256): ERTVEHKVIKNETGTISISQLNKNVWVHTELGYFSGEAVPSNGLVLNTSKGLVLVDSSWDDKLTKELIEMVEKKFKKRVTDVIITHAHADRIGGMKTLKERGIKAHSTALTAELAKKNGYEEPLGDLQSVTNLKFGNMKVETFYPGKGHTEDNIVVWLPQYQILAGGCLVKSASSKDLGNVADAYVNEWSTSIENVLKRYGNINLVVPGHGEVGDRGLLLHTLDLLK

[5] = biological target: T1, bovine carboxypeptidase A (Bos taurus, UniProt P00730); assay: Bovine carboxypeptidase A assay (hippuryl-L-phenylalanine hydrolysis), specificity test; format: biochemical; settings: 25 nM; 1 mM hippuryl-L-phenylalanine; 25° C., pH=7.5
T1 construct: purchased Sigma
T1 sequence (P00730 111-419): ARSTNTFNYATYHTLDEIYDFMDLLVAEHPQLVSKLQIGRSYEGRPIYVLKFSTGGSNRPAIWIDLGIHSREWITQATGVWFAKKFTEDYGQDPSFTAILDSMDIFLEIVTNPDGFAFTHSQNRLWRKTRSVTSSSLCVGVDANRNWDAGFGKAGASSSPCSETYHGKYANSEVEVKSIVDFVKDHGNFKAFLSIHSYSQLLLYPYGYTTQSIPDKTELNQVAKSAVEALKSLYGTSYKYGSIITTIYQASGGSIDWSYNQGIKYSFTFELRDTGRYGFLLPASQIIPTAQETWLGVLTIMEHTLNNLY
Procedure: Method for assay of bovine carboxypeptidase A. The assay of bovine carboxypeptidase A is based on the method of Folk and Schirmer (1963). The rate of hydrolysis of hippuryl-L-phenylalanine is determined by monitoring the increase in absorbance at 254 nm ([…], pH=7.5). The enzyme was dissolved in 10% lithium chloride to a concentration of 1-3 units per mL. Hippuryl-L-phenylalanine (0.001 M) was dissolved in 0.05 M TrisHCl, pH=7.5 with 0.5 M sodium chloride. In a 1 cm of cuvette, 1.0 mL of substrate was added and incubated in the spectrophotometer at 25° C. for 3-4 minutes to reach temperature equilibration and establish blank rate. Fifty μL of diluted enzyme was added to record increase in A254. The enzyme was preincubated with/without the inhibitor in the buffer for 15 min. at 25° C.

[6] = intercept replot of Lineweaver-Burk data, read-out: Ki′ (dissociation constant for the inhibitor from the enzyme-substrate-inhibitor complex)
[7] = slope replot of Lineweaver-Burk data, read-out: Ki (dissociation constant for the inhibitor from the enzyme-inhibitor complex)

Molecule | inhibition pattern from steady-state kinetic study [4] | IC50 [4] [nM] | Ki [4, 6] [nM] | Ki [4, 7] [nM] | further results
O=C1C[C@H]2SC=CN12 [penem] | – | – | – | – | inhibition of class B β-lactamases (class B β-lactamases): do not inhibit
CC1(C)SCN(C(=O)[C@@H](CS)Cc2ccccc2)[C@H]1C(=O)O [3-[2′-(S)-benzyl-3′-mercaptopropanoyl]-4-(S)-carboxy-5,5-dimethylthiazolidine] | – | – | – | – | binding to metallo-β-lactamase [1]: “tightly” binds
O=C(Cc1ccccc1)NCCS [N-(2′-mercaptoethyl)-2-phenylacetamide] | – | – | – | – | Ki [2]: 50000 ± 3000 nM; type of inhibition [2]: competitive inhibitors
O=C(O)[C@H]1/C(=C/CO)O[C@@H]2CC(=O)N21 [clavulanic acid] | – | – | – | – | inhibition of class B β-lactamases (class B β-lactamases): do not inhibit
R-thiomandelic acid | – | – | – | – | Ki [3]: 90 nM
O=C(O)CN(CCN(CC(=O)O)CC(=O)O)CC(=O)O [EDTA, reference compound] | noncompetitive inhibition | 3100 | 2900 | 750 | –
5′-d(AACCAAACTTGGATCGGTGCACATGTCGAA)-3′ [30-mer] | noncompetitive inhibition | 1.2 | 11 | 0.92 | time dependence of the reversible inhibition ([4]; 0.5 nM the 30-mer): time-independent; also recorded: not time-dependent; effect on the activity of the carboxypeptidase A [5]: no effect; also recorded: did not show any inhibition
5′-d(CCAAACTTGG)-3′ [10-mer] | noncompetitive inhibition | – | – | – | time dependence of the reversible inhibition ([4]; 1.0 nM of the 10-mer): time-independent; also recorded: not time-dependent; fold lower Ki than the Ki reported for R-thiomandelic acid ([4]; vs. Mollard et al. (2001)): 290 fold; effect on the activity of the carboxypeptidase A [5]: no effect; also recorded: did not show any inhibition
N-benzylacetyl-D-alanylthioacetic acid | – | – | – | – | Ki [2]: 1600 ± 300 nM; type of inhibition [2]: competitive inhibitors
OCCS [2-mercaptoethanol, reference compound] | noncompetitive inhibition | 4000 | 4000 | 2000 | –
